Results as given in patent US4740233A, “Substituted 1,2,4-triazolo[1,5-a]-pyrimidine-2-sulfonamides and compositions and methods of controlling undesired vegetation and suppressing the nitrification of ammonium nitrogen in soil” (The Dow Chemical Company, priority 1986, dated 1988).

Columns and labels:
yellow nutsedge = test: Preemergent control of plant species; format: in vivo, Cyperus esculentus; conditions: Cyperus, pre-emergence, 336 h; 0.25 lb/acre; read-out: percent preemergent control
How it was run: (§1)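 Seeds sown in agricultural soil beds in a greenhouse received aqueous emulsions of test compositions applied uniformly over the bed surface at the listed rates; water-treated beds served as control. After two weeks under greenhouse growth conditions, control was scored as growth reduction versus untreated plants of the same species.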

soybean = test: Preemergent control of plant species; format: in vivo, Glycine max.; conditions: Glycine max, pre-emergence, 336 h; 0.25 lb/acre; read-out: percent preemergent control
How it was run: as §1

johnson grass = test: Preemergent control of plant species; format: in vivo, Sorghum halepense; conditions: Sorghum halepense, pre-emergence, 336 h; 0.25 lb/acre; read-out: percent preemergent control
How it was run: as §1

sugar beet = test: Preemergent control of plant species; format: in vivo, Beta saccharifera; conditions: Beta vulgaris, pre-emergence, 336 h; 0.25 lb/acre; read-out: percent preemergent control
How it was run: as §1

annual morning glory = test: Preemergent control of plant species; format: in vivo, Ipomoea spp.; conditions: Ipomoea, pre-emergence, 336 h; 0.25 lb/acre; read-out: percent preemergent control
How it was run: as §1

wild oats = test: Preemergent control of plant species; format: in vivo; conditions: Avena fatua, pre-emergence, 336 h; 0.25 lb/acre; read-out: percent preemergent control
Protocol: The seeds of various species of plants were planted in beds of good agricultural soil in a greenhouse. A number of compositions of the present invention, generally in the nature of an aqueous emulsion, were applied at rates listed in the table so as to deposit a predetermined amount of active ingredients uniformly throughout the surface of the bed. Another seed bed was treated only with water to serve as a control. After treatment the seed beds were maintained for two weeks under greenhouse conditions conducive for good plant growth and watered as necessary. Control refers to the reduction in growth compared to the observed results of the same untreated species.

yellow foxtail = test: Preemergent control of plant species; format: in vivo, Setaria lutescens; conditions: Setaria, pre-emergence, 336 h; 0.25 lb/acre; read-out: percent preemergent control
How it was run: as §1

rice = test: Preemergent control of plant species; format: in vivo, Oryza sativa; conditions: Oryza sativa, pre-emergence, 336 h; 0.25 lb/acre; read-out: percent preemergent control
How it was run: as §1

corn = test: Preemergent control of plant species; format: in vivo, Zea mays; conditions: Zea mays, pre-emergence, 336 h; 0.25 lb/acre; read-out: percent preemergent control
How it was run: as §1

barnyardgrass = test: Preemergent control of plant species; format: in vivo, Echinochloa crusgalli; conditions: Echinochloa crus-galli, pre-emergence, 336 h; 0.25 lb/acre; read-out: percent preemergent control
How it was run: as §1

cotton = test: Preemergent control of plant species; format: in vivo, Gossypium spp.; conditions: Gossypium hirsutum, pre-emergence, 336 h; 0.25 lb/acre; read-out: percent preemergent control
How it was run: as §1

rape = test: Preemergent control of plant species; format: in vivo, Brassica napus; conditions: Brassica napus, pre-emergence, 336 h; 0.25 lb/acre; read-out: percent preemergent control
How it was run: as §1

velvetleaf = test: Preemergent control of plant species; format: in vivo, Abutilon theophrasti; conditions: Abutilon theophrasti, pre-emergence, 336 h; 0.25 lb/acre; read-out: percent preemergent control
How it was run: as §1

sorghum = test: Preemergent control of plant species; format: in vivo, Sorghum vulgare; conditions: Sorghum, pre-emergence, 336 h; 0.25 lb/acre; read-out: percent preemergent control
How it was run: as §1

wheat = test: Preemergent control of plant species; format: in vivo, Triticum aestivum; conditions: Triticum aestivum, pre-emergence, 336 h; 0.25 lb/acre; read-out: percent preemergent control
How it was run: as §1

jimsonweed = test: Preemergent control of plant species; format: in vivo, Datura stramonium; conditions: Datura stramonium, pre-emergence, 336 h; 0.25 lb/acre; read-out: percent preemergent control
How it was run: as §1

[1] = test system: nitrification of ammonium nitrogen; test: Suppression of nitrification of ammonium nitrogen in soil; conditions: 27° C.
How it was run: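 Value is % NH4-N remaining after a two-week, 27° C incubation of treated soil held at 1/3 bar tension moisture. Nitrate was measured with an ion-selective electrode after extraction with ammonium sulfate solution and 10 min shaking.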

SMILES | pest or weed control at 280.212 g/ha (yellow nutsedge) [%] | plant injury at 280.212 g/ha (soybean) [%] | pest or weed control at 280.212 g/ha (johnson grass) [%] | plant injury at 280.212 g/ha (sugar beet) [%] | pest or weed control at 280.212 g/ha (annual morning glory) [%] | pest or weed control at 280.212 g/ha (wild oats) [%] | pest or weed control at 280.212 g/ha (yellow foxtail) [%] | plant injury at 280.212 g/ha (rice) [%] | plant injury at 280.212 g/ha (corn) [%] | pest or weed control at 280.212 g/ha (barnyardgrass) [%] | plant injury at 280.212 g/ha (cotton) [%] | plant injury at 280.212 g/ha (rape) [%] | pest or weed control at 280.212 g/ha (velvetleaf) [%] | plant injury at 280.212 g/ha (sorghum) [%] | plant injury at 280.212 g/ha (wheat) [%] | pest or weed control at 280.212 g/ha (jimsonweed) [%] | % NH4-N Remaining After 2 Weeks Incubation ([1]; 0.06 ppm) [%] | % NH4-N Remaining After 2 Weeks Incubation ([1]; 0.25 ppm) [%] | % NH4-N Remaining After 2 Weeks Incubation ([1]; 1 ppm) [%] | % NH4-N Remaining After 2 Weeks Incubation ([1]; 4 ppm) [%]
CCOCCOC(=O)c1cccc(C)c1NS(=O)(=O)c1nc2nc(C)cc(C)n2n1 [Compound 72] | 100 | 90 | 50 | 90 | 10 | 90 | 50 | 70 | 90 | 30 | 40 | 100 | 60 | 80 | 90 | 100 | – | – | – | –
COC(=O)c1ccc(C)c(NS(=O)(=O)c2nc3nc(C)cc(C)n3n2)c1Br [Compound 86, methyl 3-amino-2-bromo-4-methyl-N-(5,7-dimethyl-1,2,4-triazolo[1,5-a]pyrimidine-2-sulfonyl)benzoate] | 0 | 20 | 0 | 100 | 0 | 0 | 0 | 0 | 0 | 0 | 0 | 100 | 0 | 0 | 0 | 100 | – | – | – | –
CC(=O)OCc1cccc(Cl)c1NS(=O)(=O)c1nc2nc(C)cc(C)n2n1 [Compound 94, 5,7-dimethyl-N-(2-acetoxymethyl-6-chlorophenyl)-1,2,4-triazolo[1,5-a]pyrimidine-2-sulfonamide] | 0 | 50 | 0 | 0 | 0 | 0 | 0 | 0 | 0 | 0 | 60 | 100 | 0 | 0 | – | 0 | 28 | 48 | 56 | 84
Cc1ccn2nc(S(=O)(=O)Nc3c(C)cccc3C#N)nc2n1 [Compound 165] | 90 | 10 | 0 | 90 | 60 | 0 | 90 | 0 | 0 | 60 | 90 | 75 | 30 | 60 | 0 | 90 | – | – | – | –
CC(=O)c1cccc(C)c1NS(=O)(=O)c1nc2nc(C)ccn2n1 [Compound 166] | 100 | 80 | 20 | 100 | 95 | 30 | 80 | 40 | 10 | 80 | 100 | 100 | 100 | 80 | 20 | 90 | – | – | – | –
